Experimental data: ChEMBL document CHEMBL1136944, “Serratezomines D and E, new Lycopodium alkaloids from Lycopodium serratum var. serratum” (Bioorg Med Chem Lett, 2009)
The source made the active and inactive calls. The calls are words filed in the database; no cut-off is given here.

Legend:
[1] = target: Acetylcholinesterase (Electrophorus electricus) (UniProt O42275); assay: (§1) Inhibition of Electrophorus electricus acetylcholinesterase by rapid colorimetric determination
Acetylcholinesterase = Acetylcholinesterase (Electrophorus electricus, UniProt O42275); assay: as §1
Acetylcholinesterase, sequence (O42275 whole entry): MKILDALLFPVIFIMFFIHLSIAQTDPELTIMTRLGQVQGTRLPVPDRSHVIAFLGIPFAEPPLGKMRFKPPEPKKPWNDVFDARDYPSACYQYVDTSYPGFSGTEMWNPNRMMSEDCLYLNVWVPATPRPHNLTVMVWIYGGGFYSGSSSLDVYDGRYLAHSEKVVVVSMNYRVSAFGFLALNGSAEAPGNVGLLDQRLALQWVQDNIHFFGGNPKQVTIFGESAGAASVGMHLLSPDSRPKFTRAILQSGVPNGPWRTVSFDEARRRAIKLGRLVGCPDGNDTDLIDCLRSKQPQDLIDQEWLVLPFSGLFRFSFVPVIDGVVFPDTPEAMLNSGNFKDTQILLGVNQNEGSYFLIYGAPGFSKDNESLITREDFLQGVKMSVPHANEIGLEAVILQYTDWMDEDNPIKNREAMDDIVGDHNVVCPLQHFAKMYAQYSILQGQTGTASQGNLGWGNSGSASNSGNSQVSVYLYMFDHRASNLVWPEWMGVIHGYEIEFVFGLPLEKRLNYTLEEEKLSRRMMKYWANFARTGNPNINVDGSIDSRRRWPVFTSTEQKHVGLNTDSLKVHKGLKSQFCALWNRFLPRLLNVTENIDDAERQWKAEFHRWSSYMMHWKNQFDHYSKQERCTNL

Acetylcholinesterase (Electrophorus electricus), sequence (O42275 24-633 limits assumed): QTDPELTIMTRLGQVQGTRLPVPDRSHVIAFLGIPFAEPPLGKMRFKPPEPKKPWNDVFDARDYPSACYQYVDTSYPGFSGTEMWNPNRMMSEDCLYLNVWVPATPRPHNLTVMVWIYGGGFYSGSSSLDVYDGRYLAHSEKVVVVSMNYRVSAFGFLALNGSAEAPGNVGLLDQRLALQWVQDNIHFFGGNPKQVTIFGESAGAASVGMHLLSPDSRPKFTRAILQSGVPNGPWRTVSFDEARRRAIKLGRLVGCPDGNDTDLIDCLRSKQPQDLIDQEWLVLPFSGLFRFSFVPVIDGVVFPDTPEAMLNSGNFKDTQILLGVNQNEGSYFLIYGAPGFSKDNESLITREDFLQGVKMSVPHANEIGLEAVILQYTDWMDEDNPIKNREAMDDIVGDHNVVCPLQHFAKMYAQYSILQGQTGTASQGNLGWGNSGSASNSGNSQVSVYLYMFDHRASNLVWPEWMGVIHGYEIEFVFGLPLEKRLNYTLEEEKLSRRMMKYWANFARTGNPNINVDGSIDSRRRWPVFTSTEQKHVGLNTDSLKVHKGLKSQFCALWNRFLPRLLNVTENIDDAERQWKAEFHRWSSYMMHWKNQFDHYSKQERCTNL

Row | SMILES | Activity [1] | IC50 (Acetylcholinesterase)
1 | CC(=O)N1CCC[C@H]2[C@@H](C[C@@H]3CC[C@@H]4[C@@H]5C[C@@H]6[C@@H](C[C@@H](C)C[C@@H]6N(C)C5)C[C@H]4N3)C[C@H](C)C[C@H]21 | inactive | –
2 | CC(=O)N1CCC[C@H]2[C@@H](C[C@H]3CC[C@]4(O)[C@@H]5C[C@@H]6[C@@H](C[C@@H](C)C[C@@H]6N(C)C5)C[C@H]4N3)C[C@H](C)C[C@H]21 | inactive | –
3 | CC(=O)N1CCC[C@@H]2[C@@H](C[C@H]3CC[C@@H]4[C@H]5C[C@@H]6[C@@H](C[C@@H](C)C[C@@H]6N(C)C5)C[C@H]4N3)C[C@H](C)C[C@@H]21 | inactive | –
4 | C[C@@H]1C[C@@H]2C[C@H]3N[C@H](C[C@H]4C[C@@H](C)C[C@@H]5[C@@H]4CCCN5C=O)CC[C@@H]3[C@H]3C[C@H]2[C@@H](C1)N(C)C3 [SERRATEZOMINE D] | – | 600 µM
